Reference: patent publication EP0539470B1, “NEUROMUSCULAR BLOCKING AGENTS” (THE WELLCOME FOUNDATION LIMITED, priority 1990, dated 1992)

How the values were obtained:
Type in all cases: in vivo
anterior tibialis = assay: Neuromuscular blocking potency in anaesthetized cats (peroneal nerve stimulation, anterior tibialis twitch tension); settings: intravenous (femoral vein), calculated from dose-response curves, mg/kg as the free base, based on the weight of the atracurium cation
Method: (§1) Mongrel male cats (Southeastern Laboratories Animal Farm), weighing 2.2-4.25kg, were anaesthetized with a mixture of pentobarbital sodium, 7mg/kg i.p., and alpha-chloralose, 80 mg/kg i.p. Adequate levels of anaesthesia were maintained with supplemental doses of alpha-chloralose administered intravenously as needed. The trachea was cannulated and the animals were ventilated with 20 ml/kg of room air via a Harvard Apparatus respiration pump adjusted to deliver 20 strokes/minute. Arterial blood pressure was measured via a cannula in the right femoral artery connected to a Statham P23 transducer. Heart rate was determined from the ECG using a Grass tachograph. […] Isometric […] of the nictitating membrane were recorded during a resting tension of 5 grams with a Grass FT.03 force displacement transducer and a Grass polygraph. […] Twitch tension in the anterior tibialis was recorded during a resting tension of 50 grams. […] Esophageal temperature was monitored with a Yellow Springs thermistor probe and core temperature maintained between 37° and 38°C with radiant heat. […] At the end of the experiments, cats were euthanatized with intravenously administered saturated KCl or pentobarbital sodium. b) Results The ED₉₅ value for neuromuscular blocking potency was calculated from dose-response curves. […]

vagus = assay: Parasympathetic blockade in anaesthetized cats (inhibition of the response to vagus stimulation); settings: i.v., ED₅₀ for inhibition of parasympathetic (vagus) nerve stimulation relative to neuromuscular ED₉₅
Method: as §1

[1] = tested on: cervical sympathetic nerve; assay: Sympathetic blockade in anaesthetized cats (cervical sympathetic nerve stimulation, nictitating membrane contraction); settings: i.v., ED₂₅ for inhibition of sympathetic nerve stimulation relative to neuromuscular ED₉₅
Method: as §1

| SMILES | CALC. * ED₉₅ (anterior tibialis) [mg/kg] | RATIO 50% VAGUS INHIBITION vs. ED₉₅ (vagus) | RATIO 25% SYMPATHETIC INHIBITION vs. ED₉₅ [1] |
| --- | --- | --- | --- |
| COc1ccc(C[C@@H]2c3cc(OC)c(OC)cc3CC[N+]2(C)CCC(=O)OCCCCCOC(=O)CC[N+]2(C)CCc3cc(OC)c(OC)cc3[C@H]2Cc2ccc(OC)c(OC)c2)cc1OC.CS(=O)(=O)[O-].CS(=O)(=O)[O-] (relative stereo) [Compound A, 1R-cis,1'R-cis-2,2'-(3,11-Dioxo-4,10-dioxatridecamethylene)-bis-(1,2,3,4-tetrahydro-6,7-dimethoxy-2-methyl-1-veratrylisoquinolinium)methanesulphonate] | 0.062 ± 0.008 | 27 | 60 |
| COc1ccc(CC2c3cc(OC)c(OC)cc3CC[N+]2(C)CCC(=O)OCCCCCOC(=O)CC[N+]2(C)CCc3cc(OC)c(OC)cc3C2Cc2ccc(OC)c(OC)c2)cc1OC (stereo not drawn) [Atracurium besylate, 2,2'-(3,11-dioxo-4,10-dioxatridecylene)-bis-(1,2,3,4-tetrahydro-6,7-dimethoxy-2-methyl-1-veratrylisoquinolinium dibesylate] | 0.092 ± 0.010 | 17 | 34 |
